Laboratory results from ChEMBL document CHEMBL1128623, “Influence of the absolute configuration at C-4 in the binding of d-myoinositol 1,4,5 trisphosphate analogues to IP3 receptor” (Bioorg Med Chem Lett, 1995).

Key:
Settings in all cases: Membrane
[1] = target: Inositol 1,4,5-trisphosphate-gated calcium channel ITPR3 (Rattus norvegicus) (UniProt Q63269); experiment: Inositol 1,4,5-trisphosphate receptor activity by residual [3H]- IP3 binding to rat cerebellar membranes by the compound at logC = -7M
[2] = target: Inositol 1,4,5-trisphosphate-gated calcium channel ITPR3 (Rattus norvegicus) (UniProt Q63269); experiment: Inositol 1,4,5-trisphosphate receptor activity by residual [3H]- IP3 binding to rat cerebellar membranes by the compound at logC = -8M
[3] = target: Inositol 1,4,5-trisphosphate-gated calcium channel ITPR3 (Rattus norvegicus) (UniProt Q63269); experiment: Inositol 1,4,5-trisphosphate receptor activity by residual [3H]- IP3 binding to rat cerebellar membranes by the compound at logC = -6M
[4] = target: Inositol 1,4,5-trisphosphate-gated calcium channel ITPR3 (Rattus norvegicus) (UniProt Q63269); experiment: Inositol 1,4,5-trisphosphate receptor activity by residual [3H]- IP3 binding to rat cerebellar membranes by the compound at logC = -9M
[5] = target: Inositol 1,4,5-trisphosphate-gated calcium channel ITPR3 (Rattus norvegicus) (UniProt Q63269); experiment: Inositol 1,4,5-trisphosphate receptor activity by residual [3H]- IP3 binding to rat cerebellar membranes by the compound at logC = -5M

Inositol 1,4,5-trisphosphate-gated calcium channel ITPR3 (Rattus norvegicus), sequence (Q63269 whole entry): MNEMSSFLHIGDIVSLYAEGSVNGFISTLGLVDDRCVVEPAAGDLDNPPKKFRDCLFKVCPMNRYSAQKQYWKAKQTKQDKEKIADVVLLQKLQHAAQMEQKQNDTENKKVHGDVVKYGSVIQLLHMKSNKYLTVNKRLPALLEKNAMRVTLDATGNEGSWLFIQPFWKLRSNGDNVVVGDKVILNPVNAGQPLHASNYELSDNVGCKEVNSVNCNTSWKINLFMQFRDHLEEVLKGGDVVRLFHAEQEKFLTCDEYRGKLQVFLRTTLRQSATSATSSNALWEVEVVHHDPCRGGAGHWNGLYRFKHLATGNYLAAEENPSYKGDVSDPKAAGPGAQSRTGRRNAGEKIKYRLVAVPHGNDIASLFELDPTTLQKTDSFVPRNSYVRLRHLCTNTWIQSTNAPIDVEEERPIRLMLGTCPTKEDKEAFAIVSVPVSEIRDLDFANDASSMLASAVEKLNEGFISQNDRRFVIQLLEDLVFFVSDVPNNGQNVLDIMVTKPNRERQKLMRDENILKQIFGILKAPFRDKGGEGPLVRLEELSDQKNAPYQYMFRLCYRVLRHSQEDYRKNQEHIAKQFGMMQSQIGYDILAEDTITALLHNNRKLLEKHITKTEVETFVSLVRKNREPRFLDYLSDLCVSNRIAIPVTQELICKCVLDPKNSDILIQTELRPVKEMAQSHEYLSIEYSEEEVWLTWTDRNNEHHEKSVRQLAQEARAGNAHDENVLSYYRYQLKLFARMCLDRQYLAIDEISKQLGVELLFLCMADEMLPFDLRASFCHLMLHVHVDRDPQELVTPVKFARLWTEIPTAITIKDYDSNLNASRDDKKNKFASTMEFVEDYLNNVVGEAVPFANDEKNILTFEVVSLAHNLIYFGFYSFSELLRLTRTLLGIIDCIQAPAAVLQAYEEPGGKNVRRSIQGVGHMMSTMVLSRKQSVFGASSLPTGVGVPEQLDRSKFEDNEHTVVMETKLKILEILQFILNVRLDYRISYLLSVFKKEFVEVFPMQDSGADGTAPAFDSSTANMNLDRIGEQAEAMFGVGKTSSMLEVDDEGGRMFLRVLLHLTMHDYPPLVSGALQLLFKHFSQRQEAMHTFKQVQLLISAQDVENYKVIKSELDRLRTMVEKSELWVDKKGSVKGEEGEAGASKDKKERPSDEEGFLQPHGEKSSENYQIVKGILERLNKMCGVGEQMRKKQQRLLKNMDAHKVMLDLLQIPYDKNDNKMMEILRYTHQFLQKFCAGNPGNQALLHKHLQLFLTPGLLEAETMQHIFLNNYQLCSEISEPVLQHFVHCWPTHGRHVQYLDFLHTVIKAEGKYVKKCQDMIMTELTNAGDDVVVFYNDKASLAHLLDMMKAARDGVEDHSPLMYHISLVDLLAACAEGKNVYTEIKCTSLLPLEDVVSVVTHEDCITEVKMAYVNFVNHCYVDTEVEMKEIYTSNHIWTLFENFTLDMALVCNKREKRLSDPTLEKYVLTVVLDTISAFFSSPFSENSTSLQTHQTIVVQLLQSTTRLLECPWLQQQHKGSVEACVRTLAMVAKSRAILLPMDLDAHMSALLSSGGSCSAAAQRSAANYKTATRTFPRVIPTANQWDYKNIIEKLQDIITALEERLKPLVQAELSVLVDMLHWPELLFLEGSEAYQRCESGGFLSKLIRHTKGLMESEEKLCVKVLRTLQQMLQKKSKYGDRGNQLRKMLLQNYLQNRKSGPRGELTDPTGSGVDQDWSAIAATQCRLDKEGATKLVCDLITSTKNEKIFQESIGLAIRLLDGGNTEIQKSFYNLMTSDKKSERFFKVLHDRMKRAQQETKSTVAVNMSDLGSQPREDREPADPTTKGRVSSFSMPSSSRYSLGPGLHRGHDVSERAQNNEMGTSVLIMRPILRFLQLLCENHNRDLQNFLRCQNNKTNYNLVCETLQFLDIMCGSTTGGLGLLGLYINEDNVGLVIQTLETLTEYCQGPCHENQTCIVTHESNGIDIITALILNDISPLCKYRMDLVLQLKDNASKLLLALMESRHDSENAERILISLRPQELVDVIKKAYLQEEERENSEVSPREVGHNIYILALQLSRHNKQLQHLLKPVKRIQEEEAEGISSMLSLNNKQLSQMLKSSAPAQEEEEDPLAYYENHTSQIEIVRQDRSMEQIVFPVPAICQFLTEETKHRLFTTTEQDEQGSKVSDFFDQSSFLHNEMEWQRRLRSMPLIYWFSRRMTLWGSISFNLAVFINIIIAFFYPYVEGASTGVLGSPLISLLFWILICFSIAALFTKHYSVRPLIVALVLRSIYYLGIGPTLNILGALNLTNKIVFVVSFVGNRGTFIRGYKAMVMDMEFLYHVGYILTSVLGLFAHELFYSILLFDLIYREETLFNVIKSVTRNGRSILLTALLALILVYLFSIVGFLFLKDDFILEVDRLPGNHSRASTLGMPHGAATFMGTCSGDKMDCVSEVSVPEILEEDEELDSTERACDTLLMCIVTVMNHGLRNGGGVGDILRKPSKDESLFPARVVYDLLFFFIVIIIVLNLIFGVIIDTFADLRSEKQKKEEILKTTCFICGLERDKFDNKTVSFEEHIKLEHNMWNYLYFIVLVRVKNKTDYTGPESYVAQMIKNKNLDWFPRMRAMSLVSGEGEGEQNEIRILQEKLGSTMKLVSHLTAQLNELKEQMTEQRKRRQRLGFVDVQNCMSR

residual activity [1] [%]	residual activity [2] [%]	residual activity [3] [%]	residual activity [4] [%]	residual activity [5] [%]	Compound
50	100	20	–	–	O=P(O)(O)O[C@@H]1[C@@H](O)[C@H](OP(=O)(O)O)[C@H](O)C[C@H]1OP(=O)(O)O
100	110	80	100	40	O=P(O)(O)O[C@@H]1[C@@H](O)[C@H](OP(=O)(O)O)[C@H](O)C[C@@H]1OP(=O)(O)O
20	70	5	95	5	O=P(O)(O)O[C@@H]1[C@H](O)[C@@H](O)[C@@H](OP(=O)(O)O)[C@H](OP(=O)(O)O)[C@H]1O
